In US10526297B2, “Benzylideneguanidine derivatives and therapeutic use for the treatment of protein misfolding diseases” (United Kingdom Research and Innovation, priority 2013, dated 2020):
Like-named read-outs stand apart in the source and are kept apart here.

Tests used:
HeLa cells [1] = details: tunicamycin, cited from earlier work
PPP1R15B (CReP) = target: T1, PPP1R15B (CReP) (Homo sapiens, UniProt Q5SWA1); details: constitutive PPP1R15B (CReP); cited from earlier work
T1 sequence (Q5SWA1 1-713): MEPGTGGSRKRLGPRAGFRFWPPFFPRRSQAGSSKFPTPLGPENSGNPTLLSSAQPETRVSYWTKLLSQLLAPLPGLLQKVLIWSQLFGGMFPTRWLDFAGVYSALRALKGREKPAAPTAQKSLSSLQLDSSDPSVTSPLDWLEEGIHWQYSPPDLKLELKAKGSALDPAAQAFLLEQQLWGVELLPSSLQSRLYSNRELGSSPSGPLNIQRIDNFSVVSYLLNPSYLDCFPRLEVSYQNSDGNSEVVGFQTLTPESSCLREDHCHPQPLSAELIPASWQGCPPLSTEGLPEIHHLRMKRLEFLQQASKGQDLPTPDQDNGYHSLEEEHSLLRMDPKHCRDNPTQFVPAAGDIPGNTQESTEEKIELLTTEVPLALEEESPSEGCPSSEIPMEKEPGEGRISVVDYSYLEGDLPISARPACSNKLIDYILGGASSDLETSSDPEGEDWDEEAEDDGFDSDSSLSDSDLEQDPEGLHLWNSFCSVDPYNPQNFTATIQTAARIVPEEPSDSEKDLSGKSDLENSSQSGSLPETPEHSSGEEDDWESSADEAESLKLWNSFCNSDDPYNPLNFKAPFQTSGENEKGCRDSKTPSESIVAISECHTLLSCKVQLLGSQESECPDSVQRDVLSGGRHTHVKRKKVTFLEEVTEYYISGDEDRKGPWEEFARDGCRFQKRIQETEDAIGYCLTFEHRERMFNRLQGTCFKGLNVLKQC

[2] = test system: choroidal neovascularization (CNV); details: laser-induced rat AMD model; cited from earlier work
[3] = test system: retinal pigment epithelium (RPE); details: rat AMD model; cited from earlier work
choroidal blood flow = details: in vivo; cited from earlier work
non-stressed cells = details: cited from earlier work
prion infected mice = details: mouse, in vivo; cited from earlier work
PPP1R15A (GADD34) = PPP1R15A (GADD34) (Homo sapiens, UniProt O75807); details: cited from earlier work
Chain of PPP1R15A (GADD34) (O75807 whole entry, species assumed): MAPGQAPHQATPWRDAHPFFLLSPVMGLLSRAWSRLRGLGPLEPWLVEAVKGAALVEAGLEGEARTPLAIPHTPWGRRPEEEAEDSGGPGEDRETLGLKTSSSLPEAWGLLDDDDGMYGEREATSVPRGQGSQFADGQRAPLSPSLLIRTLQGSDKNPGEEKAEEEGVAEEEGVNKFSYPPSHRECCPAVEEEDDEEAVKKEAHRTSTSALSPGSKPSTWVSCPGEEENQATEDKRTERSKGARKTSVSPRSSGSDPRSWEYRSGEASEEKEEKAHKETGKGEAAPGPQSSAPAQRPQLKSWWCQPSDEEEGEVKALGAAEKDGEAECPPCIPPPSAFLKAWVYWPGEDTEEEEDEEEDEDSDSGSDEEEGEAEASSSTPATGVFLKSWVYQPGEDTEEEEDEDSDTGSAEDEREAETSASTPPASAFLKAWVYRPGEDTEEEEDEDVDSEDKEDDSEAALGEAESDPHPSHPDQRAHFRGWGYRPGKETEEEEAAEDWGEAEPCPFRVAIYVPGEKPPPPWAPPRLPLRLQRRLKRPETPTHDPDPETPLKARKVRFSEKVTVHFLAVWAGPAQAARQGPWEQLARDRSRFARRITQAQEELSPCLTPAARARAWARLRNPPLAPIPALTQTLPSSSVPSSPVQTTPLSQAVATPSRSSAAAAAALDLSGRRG

[4] = test system: Min6 and INS-1 pancreatic beta-cells; details: expression in the ER of Min6 and INS-1 cells; cited from earlier work
mutant Huntingtin = details: cell-based assays, cited from earlier work
HeLa cells [5] = assay: Assessment of Translation Rates in Unstressed Cells (Test 2); assay type: cell-based; details: compounds 50 μM, 0.5-7.5 h, 35S-methionine labelling
Description: Following labelling, cells were washed with ice-cold PBS and lysed in 75 μl Laemmli Buffer. […] Gels were then stained with Coomassie Brilliant Blue R-250 and analyzed by phosphorimaging.

HeLa cells [6] = assay: Cytoprotection from ER Stress (Test 1); details: 2.5 μg/ml tunicamycin 6 h, inhibitors 0.2-5 μM, WST-8 viability 48 h after tunicamycin, relative to control
PPP1R15A or PPP1R15B = assay: Selectivity assessment inferred from the tests; assay type: cell-based; details: inferred from translation inhibition in stressed/non-stressed cells
HeLa cells [7] = assay: Assessment of Translation Rates in Stressed Cells (Test 3); details: tunicamycin 2.5 μg/ml together with compounds 50 μM, 35S-methionine labelling
[8] = test system: animal models of alpha-synucleinopathy; details: two animal models of alpha-synucleinopathy; cited from earlier work
[9] = test system: G93A-SOD1 transgenic mouse; details: cited from earlier work
P0S63del mice = details: cited from earlier work

NC(N)=N/N=C/c1c(Cl)cccc1Cl [Guanabenz, 2-(2,6-dichlorobenzylidene)hydrazinecarboximidamide]
EC50 (HeLa cells [1]; read-out: median effective concentration (cells surviving ER stress)): ~400 nM | protection of cells from cytotoxic ER stress (in words) (HeLa cells [1]): doubled the number of cells surviving ER stress | binding to PPP1R15B (PPP1R15B (CReP)): does not bind | development of choroidal neovascularization (CNV) [2]: inhibited the development of choroidal neovascularization (CNV) | protection of RPE from NalO3-induced degeneration [3]: significantly protected | choroidal blood flow (choroidal blood flow): increased choroidal blood flow markedly | translation inhibition in non-stressed cells (non-stressed cells): does not inhibit translation in non-stressed cells | symptoms of prion infected mice (prion infected mice): reduces the symptoms | binding to PPP1R15A (PPP1R15A (GADD34)): binding to a regulatory subunit of protein phosphatase 1, PPP1R15A (GADD34) | protection against lethal effects of Insulin Akita mutant expression [4]: protection against the lethal effects | mutant huntingtin accumulation (mutant Huntingtin): attenuating accumulation of mutant Huntingtin | mutant huntingtin accumulation (mutant Huntingtin; listed as guanabenz): reduces mutant huntingtin accumulation in cells

N=C(N)N/N=C/c1c(F)cncc1Cl [Example 16, 1-[(E)-[(3-chloro-5-fluoropyridin-4-yl)methylidene]amino]guanidine]
Test 2 Translation inhibition in non-stressed cells (HeLa cells [5]): YES | Test 1 Survival following ER stress (increase %) (HeLa cells [6]): 140%

Clc1cccc(Cl)c1N=C1NCCN1 [clonidine]
protection of cells from cytotoxic ER stress (in words) (HeLa cells [1]): Neither the α2-adrenergic receptor agonist clonidine, nor the α2-adrenergic receptor antagonist efaroxan protected cells

CCC1(C2=NCCN2)Cc2ccccc2O1 (stereo not shown) [efaroxan]
protection of cells from cytotoxic ER stress (in words) (HeLa cells [1]): Neither the α2-adrenergic receptor agonist clonidine, nor the α2-adrenergic receptor antagonist efaroxan protected cells

N=C(N)N/N=C/c1ccccc1Br [Example 2, 1-[(E)-[(2-bromophenyl)methylidene]amino]-guanidine]
Selectivity assessment Selectivity towards PPP1R15A or PPP1R15B (PPP1R15A or PPP1R15B): inhibit both PPP1R15A and B | Test 3 Translation attenuation after Tm (HeLa cells [7]): prolonged | Test 2 Translation inhibition in non-stressed cells (HeLa cells [5]): YES | Test 1 Survival following ER stress (increase %) (HeLa cells [6]): 40%

N=C(N)N/N=C/c1c(F)cccc1Cl [Example 15, 1-[(E)-[(2-chloro-6-fluorophenyl)methylidene]amino]guanidine]
Test 3 Translation attenuation after Tm (HeLa cells [7]): prolonged | Test 1 Survival following ER stress (increase %) (HeLa cells [6]): 160%

N=C(N)N/N=C/c1ccccc1F [Example 3, 1-[(E)-[(2-fluorophenyl)methylidene]amino]-guanidine]
Test 3 Translation attenuation after Tm (HeLa cells [7]): prolonded | Test 2 Translation inhibition in non-stressed cells (HeLa cells [5]): YES | Test 1 Survival following ER stress (increase %) (HeLa cells [6]): 80%

N=C(N)N/N=C/c1ccc(F)cc1Cl [Example 7, 1-[(E)-[(2-chloro-4-fluorophenyl)methylidene]amino]guanidine]
Selectivity assessment Selectivity towards PPP1R15A or PPP1R15B (PPP1R15A or PPP1R15B): inhibit both PPP1R15A and B | Test 3 Translation attenuation after Tm (HeLa cells [7]): prolonged | Test 2 Translation inhibition in non-stressed cells (HeLa cells [5]): YES | Test 1 Survival following ER stress (increase %) (HeLa cells [6]): 160%

Cc1ccccc1/C=N/NC(=N)N [Example 4, 1-[(E)-[(2-methylphenyl)methylidene]amino]guanidine]
Selectivity assessment Selectivity towards PPP1R15A or PPP1R15B (PPP1R15A or PPP1R15B): inhibit both PPP1R15A and B | Test 3 Translation attenuation after Tm (HeLa cells [7]): prolonged | Test 2 Translation inhibition in non-stressed cells (HeLa cells [5]): YES | Test 1 Survival following ER stress (increase %) (HeLa cells [6]): 100%

COC(=O)NC(=N)N/N=C/c1ccccc1Cl [Example 9, methyl N-{N-[(E)-[(2-chlorophenyl)methylidene]amino]carbamimidoyl}carbamate]
Test 1 Survival following ER stress (increase %) (HeLa cells [6]): 20%

Cc1nnc(N/N=C/c2ccccc2Cl)[nH]c1=O [Example 6, 2-chlorobenzaldehyde (6-methyl-5-oxo-4,5-dihydro-1,2,4-triazin-3-yl)hydrazone]
Selectivity assessment Selectivity towards PPP1R15A or PPP1R15B (PPP1R15A or PPP1R15B): confirmed selective inhibitors of PPP1R15A | Test 3 Translation attenuation after Tm (HeLa cells [7]): prolonged | Test 1 Survival following ER stress (increase %) (HeLa cells [6]): 120%

CC(=O)NC(=N)N/N=C/c1ccccc1Cl [Example 8, N-{N-[(E)-[(2-chlorophenyl)methylidene]amino]carbamimidoyl}acetamide]
Selectivity assessment Selectivity towards PPP1R15A or PPP1R15B (PPP1R15A or PPP1R15B): inhibit both PPP1R15A and B | Test 3 Translation attenuation after Tm (HeLa cells [7]): prolonged | Test 2 Translation inhibition in non-stressed cells (HeLa cells [5]): YES | Test 1 Survival following ER stress (increase %) (HeLa cells [6]): 100%

O=C(/C=C/c1ccccc1)NC(NC(=S)Nc1cccc2cccnc12)C(Cl)(Cl)Cl (stereo not shown) [Salubrinal]
disease manifestations [8]: significantly attenuates disease manifestations | life span [9]: extends the life span | motor capacity in rotarod analysis (P0S63del mice; P0S63del mice): regained almost normal motor capacity | toxicity (P0S63del mice; mouse, in vivo): toxic

N=C(N)N/N=C/c1ccncc1Cl [Example 13, 1-[(E)-[(3-chloropyridin-4-yl)methylidene]amino]guanidine]
Test 1 Survival following ER stress (increase %) (HeLa cells [6]): 60-80%
